In patent publication US5610320A, “Sulfonamide phenyl substituted compounds” (Eisai Co., Ltd., priority 1990, dated 1997):
Converted amounts (≈) assume the structure as drawn.

system: KB cells (human nasopharyngeal cells); assay: In vitro antineoplastic test on KB cells (MTT, 3 days); format: cell-based; settings: 72 h, KB cells in vitro, 37° C. for three days, MTT, read-out: IC50
Protocol: In vitro antineoplastic test on KB cells (human nasopharyngeal cells):
1.25×10^3 (0.1 ml) of KB cells suspended in a RPMI 1640 medium (a product of Nissui Seiyaku Co., Ltd.) containing 20% of bovine fetus serum, penicillin (100 units/ml), streptomycin (100 μg/ml), mercaptoethanol (5×10^-5 M) and sodium pyruvate (1 mM) were placed in each hole of a 96-hole flat-bottom microplate and cultured in an incubator containing 5% of carbon dioxide at 37° C. for one day.
This concentration was the maximum one, which was subjected to two-fold serial dilution with 0.1% bovine fetus serum RPMI 1640 culture liquid containing 0.5% of dimethyl sulfoxide. It was added to the KB cells in each hole of the above-described culture plate in an amount of 0.1 ml and cultured in an incubator containing 5% of carbon dioxide at 37° C. for three days.
After the completion of the culture, 0.05 ml of MTT [3-(4,5-dimethylthiazol-2-yl)-2,5-diphenyltetrazolium bromide] solution (3.3 mg/ml) was added to each hole and the culture was conducted for an additional 1 h. The supernatant liquid was removed from each hole by suction and a formazan thus formed was dissolved in 0.1 ml of dimethyl sulfoxide. The absorbance at 540 nm was determined with a microplate reader to use as an index of a viable count. A percentage inhibition was calculated according to the following formula and the concentration of the test compound for 50% inhibition (IC50) was determined.
Percentage inhibition (%)=(C-T)/C×100
T: absorbance of the hole containing the test compound
C: absorbance of the hole containing no test compound

| SMILES | IC50 [µg/mL] |
| --- | --- |
| COCOc1ccc(Nc2ncccc2NS(=O)(=O)c2ccc(OC)cc2)cc1 [Example 5, 4-Methoxy-N-[2-[(4-methoxymethyloxyphenyl)amino]-3-pyridyl-]benzenesulfonamide] | 0.73 (≈ 1.76 µM) |
| COc1ccc(S(=O)(=O)Nc2cccnc2Nc2ccc(C)cc2)cc1 [Example 8, 4-Methoxy-N-[2-[(4-methylphenyl)amino]-3-pyridyl]benzenesulfonamide] | 0.89 (≈ 2.41 µM) |
| COc1ccc(S(=O)(=O)Nc2cccnc2Nc2ccccc2F)cc1 [Example 9, N-[2-[(2-Fluorophenyl)amino]-3-pyridyl]-4-methoxybenzenesulfonamide] | 0.34 (≈ 0.911 µM) |
| COc1ccc(S(=O)(=O)Nc2cccnc2Nc2cccc(F)c2)cc1 [Example 10, N-[2-[(3-Fluorophenyl)amino]-3-pyridyl]-4-methoxybenzenesulfonamide] | 0.21 (≈ 0.562 µM) |
| COc1ccc(S(=O)(=O)Nc2cccnc2Nc2ccc(F)cc2)cc1 [Example 11, N-[2-[(4-Fluorophenyl)amino]-3-pyridyl]-4-methoxybenzenesulfonamide] | 0.33 (≈ 0.884 µM) |
| COc1ccc(S(=O)(=O)Nc2cccnc2Nc2cccc(OC)c2)cc1 [Example 13, 4-Methoxy-N-[2-[(3-methoxyphenyl)amino]-3-pyridyl]benzenesulfonamide] | 2.6 (≈ 6.75 µM) |
| COc1ccc(S(=O)(=O)Nc2cccnc2Nc2ccccc2OC)cc1 [Example 16, 4-Methoxy-N-[2-[(2-methoxyphenyl)amino]-3-pyridyl]benzenesulfonamide] | 1.5 (≈ 3.89 µM) |
| COc1ccc(S(=O)(=O)Nc2cccnc2Nc2cccc(C)c2)cc1 [Example 17, 4-Methoxy-N-[2-[(3-methylphenyl)amino]-3-pyridyl]benzenesulfonamide] | 0.94 (≈ 2.54 µM) |
| COc1ccc(S(=O)(=O)Nc2cccnc2Nc2ccccc2C)cc1 [Example 18, 4-Methoxy-N-[2-[2(2-methylphenyl)amino]-3-pyridyl]benzenesulfonamide] | 0.73 (≈ 1.98 µM) |
| Nc1ccc(S(=O)(=O)Nc2cccnc2Nc2ccccc2)cc1 [Example 21, 4-Amino-N-(2-anilino-3-pyridyl)benzenesulfonamide] | 1.1 (≈ 3.23 µM) |
| CCOc1ccc(S(=O)(=O)Nc2cccnc2Nc2ccccc2)cc1 [Example 27, N-(2-Anilino-3-pyridyl)-4-ethoxybenzenesulfonamide] | 1.4 (≈ 3.79 µM) |
| COc1ccc(S(=O)(=O)Nc2cccnc2Nc2cccc(O)c2)cc1 [Example 34, N-[2-[(3-Hydroxyphenyl)amino]-3-pyridyl]-4-methoxybenzenesulfonamide] | 0.11 (≈ 0.296 µM) |
| CCOc1ccc(Nc2ncccc2NS(=O)(=O)c2ccc(OC)cc2)cc1 [Example 35, N-[2-[(4-Ethoxyphenyl)amino]-3-pyridyl]-4-methoxybenzenesulfonamide] | 0.45 (≈ 1.13 µM) |
| COc1ccc(S(=O)(=O)Nc2cccnc2Nc2ccc(O)c(C)c2)cc1 [Example 36, N-[2-[(4-hydroxy-3-methylphenyl)amino]-3-pyridyl]-4-methoxybenzenesulfonamide] | 0.72 (≈ 1.87 µM) |
| CCOC(=O)c1ccc(Nc2ncccc2NS(=O)(=O)c2ccc(OC)cc2)cc1 [Example 37, Ethyl 4-[[3-(4-methoxybenzenesulfonamido)-2-pyridyl]amino]benzoate] | 1.3 (≈ 3.04 µM) |
| COc1ccc(S(=O)(=O)Nc2cccnc2Nc2ccc(Oc3ccccc3)cc2)cc1 [Example 40, 4-Methoxy-N-[2-[(4-phenoxyphenyl)amino]-3-pyridyl]benzenesulfonamide] | 2.1 (≈ 4.69 µM) |
| COc1ccc(S(=O)(=O)Nc2cccnc2Nc2ccc(Cl)cc2)cc1 [Example 42, N-[2-[(4-Chlorophenyl)amino]-3-pyridyl]-4-methoxybenzenesulfonamide] | 0.59 (≈ 1.51 µM) |

| SMILES | IC50 [µg/mL] |
| --- | --- |
| COc1ccc(S(=O)(=O)Nc2cccnc2Nc2ccccc2O)cc1 [Example 43, N-[2-[(2-Hydroxyphenyl)amino]-3-pyridyl]-4-methoxybenzenesulfonamide] | 0.26 (≈ 0.7 µM) |
| COc1ccc(S(=O)(=O)Nc2c(Nc3ccccc3)ncnc2OC)cc1 [Example 47, N-(4-Anilino-6-methoxy-5-pyrimidyl)-4-methoxybenzenesulfonamide] | 2.6 (≈ 6.73 µM) |
| COc1ccc(S(=O)(=O)Nc2ccc(OC)nc2Nc2ccccc2)cc1 [Example 54, N-(2-Anilino-6-methoxy-3-pyridyl)-4-methoxybenzene sulfonamide] | 0.54 (≈ 1.4 µM) |
| COc1ccc(S(=O)(=O)Nc2ccccc2Nc2ncccn2)cc1 [Example 57, 4-Methoxy-N-[2-[(2-pyrimidyl)amino]phenyl]benzenesulfonamide] | 0.17 (≈ 0.477 µM) |
| COc1ccc(S(=O)(=O)Nc2ccccc2Nc2ccccc2)cc1 [Example 58, N-(2-Anilinophenyl)-4-methoxybenzenesulfonamide] | 1.2 (≈ 3.39 µM) |
| COc1ccc(S(=O)(=O)Nc2cccnc2Nc2ccc(OC(=O)c3ccccc3)cc2)cc1 [Example 59, N-[2-[(4-Benzoyloxyphenyl)amino]-3-pyridyl]-4-methoxybenzenesulfonamide] | 0.18 (≈ 0.379 µM) |
| COc1ccc(S(=O)(=O)Nc2cccnc2Nc2ccc(OC(=O)CN)cc2)cc1.Cl.Cl [Example 61, N-[2-[[4-(Aminoacetyloxy)phenyl]amino]-3-pyridyl]-4-methoxybenzenesulfonamide dihydrochloride] | 0.83 |
| COc1ccc(Nc2ncccc2N(C)S(=O)(=O)c2ccc(OC)cc2)cc1 [Example 62, 4-Methoxy-N-[2-[(4-methoxyphenyl)amino]-3-pyridyl]-N-methylbenzenesulfonamide] | 0.53 (≈ 1.33 µM) |
| COc1ccc(S(=O)(=O)Nc2cccnc2Nc2ccc(OC(=O)c3ccccc3N)cc2)cc1 [Example 63, N-[2-[[4-(2-Aminobenzoyloxy)phenyl]amino]-3-pyridyl]-4-methoxybenzenesulfonamide] | 0.2 (≈ 0.408 µM) |
| COc1ccc(S(=O)(=O)Nc2cccnc2Nc2ccc(OP(=O)(O)O)cc2)cc1 [Example 64, 4-[[3-(4-Methoxybenzenesulfonamido)-2-pyridyl]amino]phenyl dihydrogenphosphate] | 0.55 (≈ 1.22 µM) |
| COc1ccc(S(=O)(=O)Nc2cccnc2Nc2cccc(OP(=O)(O)O)c2)cc1 [Example 65, 3-[[3-(4-Methoxybenzenesulfonamido)-2-pyridyl]amino]phenyl dihydrogenphosphate] | 0.2 (≈ 0.443 µM) |
| COc1ccc(S(=O)(=O)Nc2ccccc2Nc2ccc(O)cc2)cc1 [Example 67, N-[2-[(4-Hydroxyphenyl)amino]phenyl]-4-methoxybenzenesulfonamide] | 1.4 (≈ 3.78 µM) |
| COc1ccc(S(=O)(=O)Nc2cccnc2Nc2ccc(OC(=O)C(C)(C)C)cc2)cc1 [Example 68, 4-Methoxy-N-[2-[(4-pivaloyloxyphenyl)amino]-3-pyridyl]benzenesulfonamide] | 0.17 (≈ 0.373 µM) |
| COc1ccc(S(=O)(=O)Nc2ccccc2NC(=O)c2cnccc2C)cc1 [Example 71, N-[2-(4-Methoxybenzenesulfonamido)phenyl]-4-methylnicotinamide] | 0.11 (≈ 0.277 µM) |
| COc1ccc(S(=O)(=O)Nc2ccccc2NC(=O)c2ccncc2C)cc1 [Example 72, N-[2-(4-Methoxybenzenesulfonamido)phenyl]-3-methylisonicotinamide] | 0.012 (≈ 0.0302 µM) |
| COc1ccc(S(=O)(=O)Nc2ccccc2Nc2ccccn2)cc1 [Example 76, 4-Methoxy-N-[2-[(2-pyridyl)amino]phenyl]benzenesulfonamide] | 0.13 (≈ 0.366 µM) |

same assay, conditions: KB, 72 h

| SMILES | IC50 [µg/mL] |
| --- | --- |
| COc1ccc(S(=O)(=O)Nc2cccnc2Nc2ccc(OC(=O)N(C)C)cc2)cc1 [Example 52, N-[2-[(4-Dimethylcarbamoyloxyphenyl)amino]-3-pyridyl]-4-methoxybenzenesulfonamide] | 0.54 (≈ 1.22 µM) |
